The inhibition is how much of the control response was suppressed. By IC50 is commonly meant the midpoint of a concentration-inhibition curve. Usually Ki stands for a measure of affinity in units of concentration, obtained from inhibition or displacement.

Experimental findings from ChEMBL document CHEMBL4819085, “Dipyridyl-substituted thiosemicarbazone as a potent broad-spectrum inhibitor of metallo-β-lactamases” (Bioorg Med Chem, 2021) are described below.

A short description of assay [1]: Binding affinity to Zn2+ ion assessed as UV absorption peak at 325 nm at 50 uM incubated for 5 mins in presence of ZnCl2 by spectrometry analysis.
The subject of assay [2] is Klebsiella pneumoniae. Put plainly: In vivo antibacterial activity against Klebsiella pneumoniae producing NDM-1 infected in mouse assessed as reduction in bacterial load in liver at 2 mg/kg, ip. It is filed as functional, organism-based.
The test system of assay [3] is Escherichia coli. Put plainly: Antibacterial activity against Escherichia coli 04 assessed as reduction in bacterial growth incubated for 24 hrs by broth microdilution method. It counts as functional. In general terms: In broth dilution the organism is exposed to a series of concentrations in liquid medium.
For assay [4], the system named is Bacteria. Put plainly: Inhibition of bacterial VIM-2 expressed in Escherichia coli BL21 (DE3) at 20 uM using meropenem as substrate incubated for 1 hr by spectrometry analysis relative to control.
In assay [5] the test system is Bacteria. Put plainly: (§1) Inhibition of bacterial L1 using meropenem as substrate incubated for 1 hr by spectrometry analysis.
Assay [6] is described as follows: as §1. Also on record: species or system Bacteria.
For assay [7], the system named is Escherichia coli. Put plainly: Inhibition of Escherichia coli IMP-1 assessed as potentiation of meropenem-induced antibacterial activity by measuring fold reduction in meropenem MIC up to 8 ug/ml incubated for 24 hrs by broth microdilution method relative to meropenem alone. To be noted: dose microg/ml <=8, time 24.0 hrs.
A further assay relates to Enterococcus faecium. Put plainly: Antibacterial activity against vancomycin-resistant Enterococcus faecium assessed as reduction in bacterial growth incubated for 24 hrs by broth microdilution method. It is filed as functional.
Assay [8] relates to Escherichia coli. The assay can be described thus: Inhibition of Escherichia coli NDM-1 assessed as bacterial growth rate in presence of ZnCl2 relative to control. Also on record: scale not given: the % may be the effect or the level left.
The subject of assay [9] is Bacteria. The assay can be described thus: Inhibition of bacterial ImiS expressed in Escherichia coli BL21 (DE3) at 20 uM using meropenem as substrate incubated for 1 hr by spectrometry analysis relative to control.
In assay [10] the test system is Klebsiella pneumoniae. Put plainly: Antibacterial activity against Klebsiella pneumoniae assessed as fractional inhibitory concentration index incubated for 24 hrs in presence of meropenem by checkerboard assay. It is filed as functional.
For assay [11], the system named is Escherichia coli. Put plainly: Antibacterial activity against Escherichia coli producing NDM-1 assessed as zone of inhibition in presence of meropenem (reference value: 23.5 millimeter). It counts as functional.
Assay [12] has as its system Bacteria. Put plainly: Reversible inhibition of bacterial NDM-1 assessed as residual activity at 50 uM incubated for 6 hrs by dialysis method relative to control.
Assay [13] deals with Escherichia coli. Put plainly: Antibacterial activity against Escherichia coli 06 assessed as reduction in bacterial growth incubated for 24 hrs by broth microdilution method. It counts as functional.
The test system of assay [14] is Escherichia coli. The assay can be described thus: Antibacterial activity against Escherichia coli 01 assessed as reduction in bacterial growth incubated for 24 hrs by broth microdilution method. It is filed as functional.
The nature of assay [15]: Binding affinity to Zn2+ ion assessed as UV absorption peak at 435 nm at 50 uM incubated for 5 mins in presence of ZnCl2 by spectrometry analysis.
Assay [16] has as its system Bacteria. The assay can be described thus: Inhibition of bacterial NDM-1 expressed in Escherichia coli BL21 (DE3) at 20 uM using meropenem as substrate incubated for 1 hr by spectrometry analysis relative to control.
The test system of assay [17] is Escherichia coli. Put plainly: Inhibition of Escherichia coli NDM-1 assessed as potentiation of meropenem-induced antibacterial activity by measuring fold reduction in meropenem MIC up to 8 ug/ml incubated for 24 hrs by broth microdilution method relative to meropenem alone. To be noted: dose microg/ml <=8, time 24.0 hrs.
For assay [18], the system named is Escherichia coli. The assay can be described thus: Inhibition of Escherichia coli L1 assessed as potentiation of meropenem-induced antibacterial activity by measuring fold reduction in meropenem MIC up to 8 ug/ml incubated for 24 hrs by broth microdilution method relative to meropenem alone. To be noted: dose microg/ml <=8, time 24.0 hrs.
Assay [19] has as its system Escherichia coli. The assay can be described thus: Potentiation of meropenem-induced antibacterial activity against Escherichia coli 01 assessed as fold reduction in meropenem MIC incubated for 24 hrs by broth microdilution method relative to meropenem alone. It counts as functional.
Assay [20] concerns Escherichia coli. Put plainly: Inhibition of Escherichia coli ImiS assessed as potentiation of meropenem-induced antibacterial activity by measuring meropenem MIC incubated for 24 hrs by broth microdilution method.
In another assay the test system is Pseudomonas aeruginosa. Put plainly: Antibacterial activity against Carbapenem-resistant Pseudomonas aeruginosa assessed as reduction in bacterial growth incubated for 24 hrs by broth microdilution method. It is filed as functional.
The nature of assay [21]: Competitive inhibition of bacterial NDM-1 expressed in Escherichia coli BL21 (DE3) using meropenem as substrate incubated for 1 hr by Lineweaver-Burk plot analysis. Also on record: species or system Bacteria.

Values after ≈ are worked out from the molar mass of the structure shown. Active and inactive are the calls of the source. No cut-off for these calls is given here.

For `CN(C(=S)NN=C(c1ccccn1)c1ccccn1)C1CCCCC1`, the outcome in assay [1] and in assay [15] was Active. In the assay with Klebsiella pneumoniae [2], the inhibition result is “inactive”. Besides, the MIC in the assay with Escherichia coli [3] worked out at 16 µg/mL (≈ 45.3 µM); in the assay with Enterococcus faecium, 16 µg/mL (≈ 45.3 µM); in the assay with Escherichia coli [13] it was 16 µg/mL (≈ 45.3 µM); in the assay on Escherichia coli [14], 16 µg/mL (≈ 45.3 µM); in the assay with Escherichia coli [20], 4 µg/mL; in the assay on Pseudomonas aeruginosa, 16 µg/mL (≈ 45.3 µM). Besides, the inhibition is over 90% in the assay on Bacteria [4], “Dose-Dependent Effect” in the assay on Bacteria [5], over 90% in the assay with Bacteria [9] and over 90% in the assay with Bacteria [16]. The same compound registered a half-maximal inhibitory concentration (IC50) in [6] of 1080 nM. The fold change (FC) is 8 in the assay on Escherichia coli [7], 256 with Escherichia coli [17], 4 in the assay on Escherichia coli [18] and 2 with Escherichia coli [19]. Also, the Activity in the assay on Escherichia coli [8] was 90%; with Bacteria [12], 70%. Further, the FIC with Klebsiella pneumoniae [10] came out at 0.313. For the same compound, the “inhibition zone (IZ)” value with Escherichia coli [11] was determined as 30.1 mm. This compound also registered a Ki in assay [21] of 10.2 nM.
